US20040265940A1, “Amperometer sensor” (priority 2001, published 2004)
Read-outs that look alike come from different tables or passages of the source.

Tests used:
[1] = Potential of oxidation peak at a glassy carbon electrode; type: physicochemical; conditions: pH 6.95 bis-tris buffer, Ag/AgCl/sat. KCl reference electrode
[2] = cited from earlier work; for Solubility: values obtained from SRC PhysProp Database
[3] = versus SCE; cited from earlier work

Compound	Eox (potential of oxidation peak) [1]	solubility in water ([2]; in water at 25° C.)	Solubility [2]	solubility in water ([2]; in water at 18° C.)	oxidation potential [3]
CC1=CC(=O)C=C(C)C1=O	137 mV	7888 mgL^−1	7.88 E+03 (SRC) mg/L		
O=C1C=CC(=O)C=C1 [1,4-benzoquinone, reference compound]	278 mV		1.11 E+04 (SRC) mg/L	11,000 mgL^−1	approximately +400 mV
COC1=C(OC)C(=O)C(C)=CC1=O [2,3-dimethoxy-5-methyl-1,4-benzoquinone]	156 mV	11,000 mgL^−1	1.11 E+04 (SRC) mg/L		
COC1=CC(=O)C=C(OC)C1=O [2,6-dimethoxy-1,4-benzoquinone]	166 mV	70,600 mgL^−1	7.06 E+04 (SRC) mg/L		
COC1=CC(=O)C=C(CO)C1=O [2-hydroxymethyl-6-methoxy-1,4-benzoquinone]	158 mV				
O=C1C=CC(=O)C(c2ccccc2)=C1 [Phenyl-1,4-benzoquinone]	229 mV	1135 mgL^−1	1.14 E+03 (SRC) mg/L		
CC1=C(C)C(=O)C(C)=C(C)C1=O [Tetramethyl-1,4-benzoquinone]	−37 mV	443 mgL^−1	4.43 E+02 (SRC) mg/L		
